Source: ChEMBL document CHEMBL1201862, “PubChem BioAssay data set” (2004)
Values belong to the molecule of their own block, whether it stands above or below them. The source made the active and inactive calls.

Legend:
[1] = biological target: 1-phosphatidylinositol 4,5-bisphosphate phosphodiesterase gamma-1 (Homo sapiens, UniProt P19174); experiment: Counterscreen for inhibitors of phospholipase C isozymes (PLC-B3): Fluorescence-based biochemical high throughput dose response assay to identify inhibitors of phospholipase C isozymes (PLC-gamma1).
[2] = biological target: 1-phosphatidylinositol 4,5-bisphosphate phosphodiesterase beta-3 (Homo sapiens, UniProt Q01970); experiment: Fluorescence-based biochemical high throughput dose response assay to identify inhibitors of phospholipase C isozymes (PLC-B3).
[3] = biological target: NAD-dependent protein deacylase sirtuin-5, mitochondrial (Homo sapiens, UniProt Q9NXA8); experiment: sirtuin-5 deacylation blockers, concentration series – biochemical, fluorescence imaging, cherry-pick, set 5, dose response (AID 720591);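 note: desuccinylation of succinyl peptide AMC substrate read as fluorescence after trypsin release; potency of inhibitors that lower fluorescence and may act on trypsin instead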
[4] = cells; settings: A549
[5] = biological target: T1, Zinc finger protein mex-5 (Caenorhabditis elegans, UniProt Q9XUB2); experiment: potency of MEX-5 RNA-binding blockers – biochemical, C. elegans, fluorescence polarization, dose response (AID 1960)
T1 sequence (Q9XUB2 whole entry): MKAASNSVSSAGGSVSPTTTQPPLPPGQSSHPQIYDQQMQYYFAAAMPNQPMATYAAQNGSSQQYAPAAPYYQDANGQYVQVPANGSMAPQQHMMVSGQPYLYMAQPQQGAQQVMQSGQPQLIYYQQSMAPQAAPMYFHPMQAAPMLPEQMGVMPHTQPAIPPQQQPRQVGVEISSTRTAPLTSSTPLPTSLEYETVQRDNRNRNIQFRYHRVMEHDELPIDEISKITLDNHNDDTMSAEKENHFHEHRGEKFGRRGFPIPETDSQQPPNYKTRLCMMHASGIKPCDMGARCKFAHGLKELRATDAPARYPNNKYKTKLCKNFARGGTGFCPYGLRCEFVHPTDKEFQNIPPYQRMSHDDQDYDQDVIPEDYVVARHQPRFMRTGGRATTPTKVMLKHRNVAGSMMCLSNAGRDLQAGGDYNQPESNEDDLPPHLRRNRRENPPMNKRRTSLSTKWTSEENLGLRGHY

[6] = biological target: T2, RNA-binding protein pos-1 (Caenorhabditis elegans, UniProt G5EF15); experiment: disruptors of C. elegans POS-1 RNA interaction – biochemical, fluorescence polarization, dose response (AID 1964);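 note: purified POS-1 fused to maltose binding protein made in E. coli; potency of compounds blocking POS-1 binding to fluorescent RNA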
T2 sequence (G5EF15 whole entry): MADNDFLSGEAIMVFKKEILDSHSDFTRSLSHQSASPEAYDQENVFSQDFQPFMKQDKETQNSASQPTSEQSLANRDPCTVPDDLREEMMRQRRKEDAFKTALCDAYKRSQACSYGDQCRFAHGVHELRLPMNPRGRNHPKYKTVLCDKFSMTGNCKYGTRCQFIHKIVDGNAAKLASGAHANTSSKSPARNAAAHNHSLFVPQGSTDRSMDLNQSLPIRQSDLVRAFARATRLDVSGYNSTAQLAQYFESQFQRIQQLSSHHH

[7] = potency of ADAM10 substrate cleavage blockers – biochemical, QFRET, dose response (AID 743254);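 note: ADAM10 enzyme with the DM2 quenched FRET peptide as substrate; EDANS fluorescence gain as the protease cuts the substrate; inhibitor potency against ADAM10 proteolytic activity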
[8] = biological target: Disintegrin and metalloproteinase domain-containing protein 17 (Homo sapiens, UniProt P78536); experiment: inhibition of ADAM17 substrate cleavage – biochemical, quenched FRET substrate, counter-screen for ADAM10 exosite inhibitor project, dose response (AID 743253)
[9] = T. cruzi growth inhibition in host cells, dose response, cell-based, plate reader, dry powder, set 2 (AID 652275); format: functional
[10] = biological target: T3, Trace amine-associated receptor 1 (Homo sapiens, UniProt Q96RJ0); experiment: Fluorescence-based cell-based high throughput dose response assay to identify agonists of the human trace amine associated receptor 1 (TAAR1).; format: functional
T3 sequence (Q96RJ0 whole entry): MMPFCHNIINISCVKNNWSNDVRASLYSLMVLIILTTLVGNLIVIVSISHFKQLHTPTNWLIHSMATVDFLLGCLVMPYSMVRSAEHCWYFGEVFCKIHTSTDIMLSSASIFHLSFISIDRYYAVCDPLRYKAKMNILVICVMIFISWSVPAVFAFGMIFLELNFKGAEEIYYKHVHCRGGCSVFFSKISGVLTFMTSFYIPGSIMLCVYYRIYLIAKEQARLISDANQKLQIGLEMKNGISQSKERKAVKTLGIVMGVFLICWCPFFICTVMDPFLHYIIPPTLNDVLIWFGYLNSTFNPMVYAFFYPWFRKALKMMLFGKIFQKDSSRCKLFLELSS

[11] = cells; format: functional, cell-based
[12] = cells; format: functional, cell-based; remark: listed apart in the source
[13] = biological target: Large T antigen (Simian virus 40, UniProt P03070); format: functional, Betapolyomavirus macacae;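 note: Confirmatory-stage PubChem screen for compounds that inhibit SV40 T antigen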
[14] = biological target: T3, Trace amine-associated receptor 1; experiment: Counterscreen for agonists of the human trace amine associated receptor 1 (hTAAR1): Fluorescence-based cell-based high throughput dose response assay to identify hTAAR1 agonist that also desensitize TAAR1 receptor response.; format: functional
[15] = P. falciparum Dd2 growth inhibitors, dose response, SYBR Green, cherry-picked samples (AID 1159567); format: functional, cell-based
[16] = toxicity to human HepG2 hepatoma cells – cell-based, plate reader, dry powder samples, cytotoxicity control, dose response (AID 1159569); format: functional;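 note: inhibitor potency with signal falling toward the positive control level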
[17] = growth inhibition of PfATP4-mutant resistant parasites – NITD609-resistant line, SYBR Green, dry powder, dose response (AID 1159571); format: functional, cell-based;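 note: parasites synchronized at ring stage by sorbitol before testing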
[18] = growth inhibition of yeast DHODH-expressing 3D7 parasites – SYBR Green, dry powder samples, dose response (AID 1159570); format: functional, cell-based;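 note: parasite growth measured after 72 hours of compound exposure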
[19] = Dd2 malaria parasite growth inhibition potency – SYBR Green, dry powder samples, dose response (AID 1159566); format: functional, cell-based;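 note: potency for growth inhibition with lower SYBR green DNA signal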
[20] = toxicity to human hepatoma HepG2 cells – cell-based, cherry-picked samples, cytotoxicity control, dose response (AID 1159577); format: functional
[21] = rise of 4N DNA cells, HeLa – IC50, dose response (AID 1117351); format: functional, cell-based
[22] = RKO cell viability reduction, dose response, CellTiter-Glo luminescence (AID 1117322); format: functional
[23] = cytotoxicity toward Colo320 cells – cell-based, CellTiter-Glo luminescence, IC50, dose response (AID 1117334); format: functional; settings: COLO 320
[24] = HCT116 cell viability decrease, GSK3B pretreatment – CellTiter-Glo, IC50, dose response (AID 1117339); format: functional; settings: HCT-116
[25] = cytotoxicity toward HCT116 cells – cell-based, CellTiter-Glo luminescence, IC50, dose response (AID 1117332); format: functional; settings: HCT-116
[26] = rise of 2N DNA cells, HeLa – IC50, dose response (AID 1117349); format: functional, cell-based
[27] = cytotoxicity toward HT-29 cells – cell-based, CellTiter-Glo luminescence, IC50, dose response (AID 1117330); format: functional

Chain of 1-phosphatidylinositol 4,5-bisphosphate phosphodiesterase gamma-1 (P19174 whole entry): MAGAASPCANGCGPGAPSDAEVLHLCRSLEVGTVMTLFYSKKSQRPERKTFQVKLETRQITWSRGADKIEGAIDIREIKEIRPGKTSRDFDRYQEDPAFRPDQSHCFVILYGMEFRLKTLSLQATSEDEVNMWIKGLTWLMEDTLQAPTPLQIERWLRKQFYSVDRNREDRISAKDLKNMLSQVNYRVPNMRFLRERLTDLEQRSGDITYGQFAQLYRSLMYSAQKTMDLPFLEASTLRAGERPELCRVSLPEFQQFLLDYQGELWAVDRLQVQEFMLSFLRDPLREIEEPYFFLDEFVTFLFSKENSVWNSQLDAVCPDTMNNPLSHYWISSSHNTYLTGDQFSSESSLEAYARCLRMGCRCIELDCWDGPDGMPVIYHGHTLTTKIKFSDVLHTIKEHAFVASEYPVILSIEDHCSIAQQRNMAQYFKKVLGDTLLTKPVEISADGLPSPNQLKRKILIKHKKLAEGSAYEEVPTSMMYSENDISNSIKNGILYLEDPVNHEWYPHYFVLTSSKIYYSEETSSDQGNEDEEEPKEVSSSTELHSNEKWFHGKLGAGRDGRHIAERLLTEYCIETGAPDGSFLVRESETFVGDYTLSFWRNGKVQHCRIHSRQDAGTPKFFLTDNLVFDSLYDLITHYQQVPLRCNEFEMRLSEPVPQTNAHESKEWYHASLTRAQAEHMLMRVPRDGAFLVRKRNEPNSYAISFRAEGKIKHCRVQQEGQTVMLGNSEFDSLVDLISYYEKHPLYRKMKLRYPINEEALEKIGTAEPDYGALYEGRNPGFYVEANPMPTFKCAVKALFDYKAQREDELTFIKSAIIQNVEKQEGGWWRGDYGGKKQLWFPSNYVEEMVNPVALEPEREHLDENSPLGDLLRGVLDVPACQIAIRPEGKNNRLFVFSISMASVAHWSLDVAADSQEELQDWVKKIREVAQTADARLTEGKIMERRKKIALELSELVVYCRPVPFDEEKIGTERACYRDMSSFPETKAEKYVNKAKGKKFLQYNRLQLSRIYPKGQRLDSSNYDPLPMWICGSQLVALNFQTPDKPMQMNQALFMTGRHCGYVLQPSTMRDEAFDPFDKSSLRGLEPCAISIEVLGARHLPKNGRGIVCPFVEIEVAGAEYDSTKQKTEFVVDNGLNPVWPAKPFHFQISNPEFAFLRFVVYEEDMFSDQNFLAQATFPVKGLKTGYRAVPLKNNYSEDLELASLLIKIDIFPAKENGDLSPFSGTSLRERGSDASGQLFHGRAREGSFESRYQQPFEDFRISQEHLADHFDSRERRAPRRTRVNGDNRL
Chain of 1-phosphatidylinositol 4,5-bisphosphate phosphodiesterase beta-3 (Q01970 whole entry): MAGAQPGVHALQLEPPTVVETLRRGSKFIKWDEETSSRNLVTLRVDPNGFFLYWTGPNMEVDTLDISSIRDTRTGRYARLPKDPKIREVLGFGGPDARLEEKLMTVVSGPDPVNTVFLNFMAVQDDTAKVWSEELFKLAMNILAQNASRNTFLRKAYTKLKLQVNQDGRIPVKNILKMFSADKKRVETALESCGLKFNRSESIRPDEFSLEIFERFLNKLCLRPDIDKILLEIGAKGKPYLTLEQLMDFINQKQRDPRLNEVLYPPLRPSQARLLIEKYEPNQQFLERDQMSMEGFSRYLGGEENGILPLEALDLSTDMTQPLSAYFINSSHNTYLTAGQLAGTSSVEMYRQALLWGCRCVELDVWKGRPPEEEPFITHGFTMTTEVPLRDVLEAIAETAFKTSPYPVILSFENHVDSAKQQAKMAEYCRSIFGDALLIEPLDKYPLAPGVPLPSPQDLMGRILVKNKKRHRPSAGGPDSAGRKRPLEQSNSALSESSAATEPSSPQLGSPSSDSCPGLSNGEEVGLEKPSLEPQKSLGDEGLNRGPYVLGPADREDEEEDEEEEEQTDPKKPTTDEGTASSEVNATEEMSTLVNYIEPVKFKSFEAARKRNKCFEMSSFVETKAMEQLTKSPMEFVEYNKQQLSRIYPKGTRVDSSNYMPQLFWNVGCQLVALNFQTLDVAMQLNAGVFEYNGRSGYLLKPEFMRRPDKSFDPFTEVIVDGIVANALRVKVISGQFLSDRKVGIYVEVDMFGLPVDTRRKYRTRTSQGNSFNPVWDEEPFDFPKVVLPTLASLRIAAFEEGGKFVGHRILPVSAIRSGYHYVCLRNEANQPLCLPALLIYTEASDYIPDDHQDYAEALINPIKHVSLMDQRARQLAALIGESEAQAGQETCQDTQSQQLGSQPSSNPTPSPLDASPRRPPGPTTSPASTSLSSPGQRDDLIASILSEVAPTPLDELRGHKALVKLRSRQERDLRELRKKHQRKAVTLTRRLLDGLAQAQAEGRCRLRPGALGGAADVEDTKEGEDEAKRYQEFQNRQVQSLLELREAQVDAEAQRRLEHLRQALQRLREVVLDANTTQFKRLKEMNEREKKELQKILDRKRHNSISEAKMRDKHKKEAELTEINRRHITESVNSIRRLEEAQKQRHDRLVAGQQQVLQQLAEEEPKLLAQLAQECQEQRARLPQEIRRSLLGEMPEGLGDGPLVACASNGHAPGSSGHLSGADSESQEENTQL
Chain of NAD-dependent protein deacylase sirtuin-5, mitochondrial (Q9NXA8 whole entry): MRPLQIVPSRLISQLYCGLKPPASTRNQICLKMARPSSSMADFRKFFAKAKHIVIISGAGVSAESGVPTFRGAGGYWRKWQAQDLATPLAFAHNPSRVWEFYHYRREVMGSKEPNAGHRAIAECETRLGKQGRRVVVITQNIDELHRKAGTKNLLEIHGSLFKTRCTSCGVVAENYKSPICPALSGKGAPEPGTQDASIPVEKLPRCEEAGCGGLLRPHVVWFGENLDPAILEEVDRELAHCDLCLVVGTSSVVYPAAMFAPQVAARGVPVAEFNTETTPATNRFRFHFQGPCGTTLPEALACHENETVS
Chain of Large T antigen (P03070 whole entry): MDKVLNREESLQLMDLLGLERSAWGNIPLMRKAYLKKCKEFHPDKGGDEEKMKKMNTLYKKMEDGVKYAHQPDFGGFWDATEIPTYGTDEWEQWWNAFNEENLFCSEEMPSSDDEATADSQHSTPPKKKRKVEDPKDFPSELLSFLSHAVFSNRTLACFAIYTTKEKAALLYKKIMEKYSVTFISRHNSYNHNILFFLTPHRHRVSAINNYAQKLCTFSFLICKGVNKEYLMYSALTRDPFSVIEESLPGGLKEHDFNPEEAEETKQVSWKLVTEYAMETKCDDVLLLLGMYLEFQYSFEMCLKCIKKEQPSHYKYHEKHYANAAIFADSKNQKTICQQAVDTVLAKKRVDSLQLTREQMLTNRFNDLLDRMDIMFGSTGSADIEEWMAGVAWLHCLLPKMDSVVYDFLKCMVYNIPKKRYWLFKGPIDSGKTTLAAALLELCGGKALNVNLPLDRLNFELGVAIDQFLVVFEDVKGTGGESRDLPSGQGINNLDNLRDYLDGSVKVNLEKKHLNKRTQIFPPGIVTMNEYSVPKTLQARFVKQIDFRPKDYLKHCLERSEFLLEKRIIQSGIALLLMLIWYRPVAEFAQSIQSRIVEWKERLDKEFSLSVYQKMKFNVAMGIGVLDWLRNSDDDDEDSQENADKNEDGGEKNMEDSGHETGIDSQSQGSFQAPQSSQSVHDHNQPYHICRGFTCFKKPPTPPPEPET
Chain of Disintegrin and metalloproteinase domain-containing protein 17 (P78536 whole entry, the tested form may be a part): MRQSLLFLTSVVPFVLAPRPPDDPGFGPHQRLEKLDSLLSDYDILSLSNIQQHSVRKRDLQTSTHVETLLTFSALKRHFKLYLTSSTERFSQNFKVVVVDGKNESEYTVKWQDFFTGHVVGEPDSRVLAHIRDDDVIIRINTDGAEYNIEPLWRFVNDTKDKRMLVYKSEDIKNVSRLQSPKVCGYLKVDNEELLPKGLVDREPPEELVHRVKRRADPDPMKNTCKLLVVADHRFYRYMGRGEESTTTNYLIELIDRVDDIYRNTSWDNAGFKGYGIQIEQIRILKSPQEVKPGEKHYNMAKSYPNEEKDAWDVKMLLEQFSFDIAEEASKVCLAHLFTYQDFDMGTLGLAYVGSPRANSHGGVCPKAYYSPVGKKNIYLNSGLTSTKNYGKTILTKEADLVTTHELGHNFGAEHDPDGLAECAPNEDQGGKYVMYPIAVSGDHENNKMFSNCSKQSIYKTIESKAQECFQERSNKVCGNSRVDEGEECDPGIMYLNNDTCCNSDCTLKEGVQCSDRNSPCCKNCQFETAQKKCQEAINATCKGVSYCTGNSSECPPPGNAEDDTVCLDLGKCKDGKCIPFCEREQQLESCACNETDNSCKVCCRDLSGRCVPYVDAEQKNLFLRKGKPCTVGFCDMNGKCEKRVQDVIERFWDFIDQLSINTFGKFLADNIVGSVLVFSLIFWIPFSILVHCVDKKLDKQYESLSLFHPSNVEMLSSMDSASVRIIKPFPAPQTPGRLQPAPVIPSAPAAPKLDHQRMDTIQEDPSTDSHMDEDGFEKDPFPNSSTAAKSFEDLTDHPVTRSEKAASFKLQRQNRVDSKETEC

IC50 [1]: > 123 µM (inactive) | IC50 [2]: > 123 µM (inactive)
SMILES: COc1ccccc1COC(=O)c1cccc(S(=O)(=O)N2CCCC2)c1

AC50 [3]: > 30 µM (inactive)
SMILES: CC(C)C[C@H](NC(=O)C1CCN(C(=O)[C@H](Cc2ccccc2)NC(=O)OC(C)(C)C)CC1)C(=O)O

SMILES: O=C1c2ccccc2S(=O)(=O)c2cc(N3CCC(C(=O)N4CCCCC4)CC3)ccc21
AC50 [4]: > 52 µM (inactive) | EC50 [5]: > 300 µM (not active) | EC50 [6]: > 300 µM (not active)

IC50 [1]: 45.1 µM (inactive) | IC50 [2]: 47.2 µM (inactive) | IC50 [7]: > 69.6 µM (inactive) | IC50 [8]: > 69.6 µM (inactive)
SMILES: CN1C(=O)c2cc(NS(=O)(=O)c3ccc(F)cc3)ccc2OC[C@H]2O[C@@H](CC(=O)NCC(F)(F)F)CC[C@@H]21

SMILES: CC(C)N1C[C@H](CNCc2ccc(Cl)cc2)Oc2c(NC(=O)c3ccncc3)cccc2C1=O
AC50 [9]: 0.731 µM (active)

SMILES: Oc1ccc(/C=N\Nc2cnnc(O)c2Cl)c(O)c1
EC50 [10]: 1.16 µM (active) | IC50 [11]: > 29.9 µM (inactive) | EC50 [12]: > 29.9 µM (inactive) | IC50 [13]: 15.7 µM (active) | IC50 [14]: 24.5 µM (inactive)

SMILES: C[C@@H]1CN([C@@H](C)CO)C(=O)c2c(c3ccccc3n2C)-c2ccccc2CO[C@@H]1CN(C)C(=O)Nc1cccc(Cl)c1Cl
AC50 [15]: 1.52 µM (active) | AC50 [16]: 23.5 µM (active) | AC50 [17]: 0.572 µM (active) | AC50 [18]: 1.62 µM (active) | AC50 [19]: 0.85 µM (active)

SMILES: OC[C@@H]1Nc2ccc(-c3cccc(F)c3)cc2[C@@H]2[C@H]1CCN2Cc1ccncc1
AC50 [15]: 1.27 µM (active) | AC50 [16]: 29.5 µM (active) | AC50 [17]: 0.814 µM (active) | AC50 [18]: 2.02 µM (active) | AC50 [19]: 0.638 µM (active) | AC50 [20]: 27.6 µM (active)

SMILES: COc1cccc2c1C(=O)c1c(O)c3c(c(O)c1C2=O)C[C@@](O)(C(=O)CO)C[C@@H]3O[C@H]1C[C@H](N)[C@H](O[C@@H]2CCCCO2)[C@H](C)O1 [PIRARUBICIN]
IC50 [21]: 0.0806 µM (active) | IC50 [22]: 1.01 µM (active) | IC50 [23]: 2.01 µM (active) | IC50 [24]: 1.28 µM (active) | IC50 [25]: 0.911 µM (active) | IC50 [26]: 0.0795 µM (active) | IC50 [27]: > 20 µM (inactive)
